According to ChEMBL document CHEMBL4507265 (2021):
pKi: −log10 of the molar value.

How the values were obtained:
[1] = molecular target: Sigma intracellular receptor 2 (Homo sapiens, UniProt Q5BJF2); assay: GPCRScan assay: inhibition of Sigma 2; design: radioligand conc. used [nm] 5.0, parental cells HEKT; conditions: for pKi: read-out: Ki
[2] = test system: Tyrosine-protein kinase ABL1 (Homo sapiens), P00519 [F317L]; conditions: Compound concentration 1000.0 nM
[3] = test system: Tyrosine-protein kinase ABL1 (Homo sapiens), P00519 [F317L]; conditions: Compound concentration 1000.0 nM; remark: listed apart in the source
[4] = molecular target: Tyrosine-protein kinase ABL1 (Homo sapiens) (UniProt P00519); conditions: Compound concentration 1000.0 nM
[5] = molecular target: Tyrosine-protein kinase ABL2 (Homo sapiens) (UniProt P42684); conditions: Compound concentration 1000.0 nM
[6] = molecular target: NUAK family SNF1-like kinase 1 (Homo sapiens) (UniProt O60285); conditions: Compound concentration 1000.0 nM
[7] = molecular target: Aurora kinase C (Homo sapiens) (UniProt Q9UQB9); conditions: Compound concentration 1000.0 nM
[8] = molecular target: Peripheral plasma membrane protein CASK (Homo sapiens) (UniProt O14936); conditions: Compound concentration 1000.0 nM
[9] = molecular target: Cyclin-dependent kinase 11B (Homo sapiens) (UniProt P21127); conditions: Compound concentration 1000.0 nM
[10] = molecular target: Dual specificity protein kinase CLK2 (Homo sapiens) (UniProt P49760); conditions: Compound concentration 1000.0 nM
[11] = molecular target: Casein kinase II subunit alpha (Homo sapiens) (UniProt P68400); conditions: Compound concentration 1000.0 nM
[12] = molecular target: Serine/threonine-protein kinase DCLK3 (Homo sapiens) (UniProt Q9C098); conditions: Compound concentration 1000.0 nM
[13] = test system: Epidermal growth factor receptor (Homo sapiens), P00533 [UNDEFINED MUTATION]; conditions: Compound concentration 1000.0 nM
[14] = molecular target: Ephrin type-B receptor 1 (Homo sapiens) (UniProt P54762); conditions: Compound concentration 1000.0 nM
[15] = molecular target: Mitogen-activated protein kinase 7 (Homo sapiens) (UniProt Q13164); conditions: Compound concentration 1000.0 nM
[16] = molecular target: Interleukin-1 receptor-associated kinase 4 (Homo sapiens) (UniProt Q9NWZ3); conditions: Compound concentration 1000.0 nM
[17] = molecular target: Mitogen-activated protein kinase 8 (Homo sapiens) (UniProt P45983); conditions: Compound concentration 1000.0 nM
[18] = test system: Mast/stem cell growth factor receptor Kit (Homo sapiens), P10721 [V559D,V654A]; conditions: Compound concentration 1000.0 nM
[19] = molecular target: Leucine-rich repeat serine/threonine-protein kinase 2 (Homo sapiens) (UniProt Q5S007); conditions: Compound concentration 1000.0 nM
[20] = molecular target: Mitogen-activated protein kinase kinase kinase kinase 5 (Homo sapiens) (UniProt Q9Y4K4); conditions: Compound concentration 1000.0 nM
[21] = molecular target: Serine/threonine-protein kinase PAK 5 (Homo sapiens) (UniProt Q9P286); conditions: Compound concentration 1000.0 nM
[22] = molecular target: Platelet-derived growth factor receptor alpha (Homo sapiens) (UniProt P16234); conditions: Compound concentration 1000.0 nM
[23] = molecular target: Cyclin-dependent kinase 15 (Homo sapiens) (UniProt Q96Q40); conditions: Compound concentration 1000.0 nM
[24] = molecular target: Phosphatidylinositol 4-phosphate 3-kinase C2 domain-containing subunit beta (Homo sapiens) (UniProt O00750); conditions: Compound concentration 1000.0 nM
[25] = molecular target: Serine/threonine-protein kinase PLK2 (Homo sapiens) (UniProt Q9NYY3); conditions: Compound concentration 1000.0 nM
[26] = molecular target: Serine/threonine-protein kinase PLK3 (Homo sapiens) (UniProt Q9H4B4); conditions: Compound concentration 1000.0 nM
[27] = molecular target: cGMP-dependent protein kinase 2 (Homo sapiens) (UniProt Q13237); conditions: Compound concentration 1000.0 nM
[28] = molecular target: Receptor-interacting serine/threonine-protein kinase 4 (Homo sapiens) (UniProt P57078); conditions: Compound concentration 1000.0 nM
[29] = molecular target: Ribosomal protein S6 kinase alpha-4 (Homo sapiens) (UniProt O75676); conditions: Compound concentration 1000.0 nM
[30] = molecular target: Ribosomal protein S6 kinase alpha-6 (Homo sapiens) (UniProt Q9UK32); conditions: Compound concentration 1000.0 nM
[31] = molecular target: Ribosomal protein S6 kinase alpha-6 (Homo sapiens) (UniProt Q9UK32); conditions: Compound concentration 1000.0 nM; remark: listed apart in the source
[32] = molecular target: NUAK family SNF1-like kinase 2 (Homo sapiens) (UniProt Q9H093); conditions: Compound concentration 1000.0 nM
[33] = molecular target: SNF-related serine/threonine-protein kinase (Homo sapiens) (UniProt Q9NRH2); conditions: Compound concentration 1000.0 nM
[34] = molecular target: Serine/threonine-protein kinase 16 (Homo sapiens) (UniProt O75716); conditions: Compound concentration 1000.0 nM
[35] = molecular target: STE20/SPS1-related proline-alanine-rich protein kinase (Homo sapiens) (UniProt Q9UEW8); conditions: Compound concentration 1000.0 nM
[36] = molecular target: Tyrosine-protein kinase SYK (Homo sapiens) (UniProt P43405); conditions: Compound concentration 1000.0 nM
[37] = molecular target: Dual specificity protein kinase TTK (Homo sapiens) (UniProt P33981); conditions: Compound concentration 1000.0 nM
[38] = molecular target: Serine/threonine-protein kinase ULK2 (Homo sapiens) (UniProt Q8IYT8); conditions: Compound concentration 1000.0 nM
[39] = molecular target: Serine/threonine-protein kinase WNK2 (Homo sapiens) (UniProt Q9Y3S1); conditions: Compound concentration 1000.0 nM
[40] = molecular target: Serine/threonine-protein kinase WNK4 (Homo sapiens) (UniProt Q96J92); conditions: Compound concentration 1000.0 nM
[41] = molecular target: Serine/threonine-protein kinase 32A (Homo sapiens) (UniProt Q8WU08); conditions: Compound concentration 1000.0 nM
[42] = molecular target: Tyrosine-protein kinase ZAP-70 (Homo sapiens) (UniProt P43403); conditions: Compound concentration 1000.0 nM
[43] = molecular target: 5-hydroxytryptamine receptor 7 (Homo sapiens) (UniProt P34969); conditions: Compound concentration 10.0 uM
[44] = molecular target: Muscarinic acetylcholine receptor M5 (Homo sapiens) (UniProt P08912); conditions: Compound concentration 10.0 uM
[45] = species on record: Rattus norvegicus; conditions: Compound concentration 10.0 uM

Chain of Ribosomal protein S6 kinase alpha-6 (Homo sapiens) (Q9UK32 whole entry): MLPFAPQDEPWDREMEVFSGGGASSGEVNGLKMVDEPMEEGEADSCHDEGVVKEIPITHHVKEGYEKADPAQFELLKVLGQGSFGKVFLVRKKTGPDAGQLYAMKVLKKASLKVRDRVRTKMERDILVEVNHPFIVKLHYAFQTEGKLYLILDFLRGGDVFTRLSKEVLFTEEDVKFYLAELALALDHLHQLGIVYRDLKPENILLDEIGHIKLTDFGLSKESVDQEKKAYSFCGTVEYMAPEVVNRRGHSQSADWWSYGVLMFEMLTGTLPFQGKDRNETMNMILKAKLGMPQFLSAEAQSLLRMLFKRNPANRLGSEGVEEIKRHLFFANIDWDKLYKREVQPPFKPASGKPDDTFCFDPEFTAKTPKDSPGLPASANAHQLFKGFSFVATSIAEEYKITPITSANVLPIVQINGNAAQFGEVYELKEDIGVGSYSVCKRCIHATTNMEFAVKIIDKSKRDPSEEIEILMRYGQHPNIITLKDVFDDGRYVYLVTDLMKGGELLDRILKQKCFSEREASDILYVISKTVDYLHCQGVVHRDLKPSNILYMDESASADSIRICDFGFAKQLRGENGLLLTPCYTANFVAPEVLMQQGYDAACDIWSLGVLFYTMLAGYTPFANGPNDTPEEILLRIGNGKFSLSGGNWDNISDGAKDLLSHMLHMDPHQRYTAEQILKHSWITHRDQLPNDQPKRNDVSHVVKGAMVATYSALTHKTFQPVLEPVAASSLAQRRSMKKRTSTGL
Chain of Tyrosine-protein kinase ABL1 (Homo sapiens), P00519 [F317L] (P00519 whole entry F317L): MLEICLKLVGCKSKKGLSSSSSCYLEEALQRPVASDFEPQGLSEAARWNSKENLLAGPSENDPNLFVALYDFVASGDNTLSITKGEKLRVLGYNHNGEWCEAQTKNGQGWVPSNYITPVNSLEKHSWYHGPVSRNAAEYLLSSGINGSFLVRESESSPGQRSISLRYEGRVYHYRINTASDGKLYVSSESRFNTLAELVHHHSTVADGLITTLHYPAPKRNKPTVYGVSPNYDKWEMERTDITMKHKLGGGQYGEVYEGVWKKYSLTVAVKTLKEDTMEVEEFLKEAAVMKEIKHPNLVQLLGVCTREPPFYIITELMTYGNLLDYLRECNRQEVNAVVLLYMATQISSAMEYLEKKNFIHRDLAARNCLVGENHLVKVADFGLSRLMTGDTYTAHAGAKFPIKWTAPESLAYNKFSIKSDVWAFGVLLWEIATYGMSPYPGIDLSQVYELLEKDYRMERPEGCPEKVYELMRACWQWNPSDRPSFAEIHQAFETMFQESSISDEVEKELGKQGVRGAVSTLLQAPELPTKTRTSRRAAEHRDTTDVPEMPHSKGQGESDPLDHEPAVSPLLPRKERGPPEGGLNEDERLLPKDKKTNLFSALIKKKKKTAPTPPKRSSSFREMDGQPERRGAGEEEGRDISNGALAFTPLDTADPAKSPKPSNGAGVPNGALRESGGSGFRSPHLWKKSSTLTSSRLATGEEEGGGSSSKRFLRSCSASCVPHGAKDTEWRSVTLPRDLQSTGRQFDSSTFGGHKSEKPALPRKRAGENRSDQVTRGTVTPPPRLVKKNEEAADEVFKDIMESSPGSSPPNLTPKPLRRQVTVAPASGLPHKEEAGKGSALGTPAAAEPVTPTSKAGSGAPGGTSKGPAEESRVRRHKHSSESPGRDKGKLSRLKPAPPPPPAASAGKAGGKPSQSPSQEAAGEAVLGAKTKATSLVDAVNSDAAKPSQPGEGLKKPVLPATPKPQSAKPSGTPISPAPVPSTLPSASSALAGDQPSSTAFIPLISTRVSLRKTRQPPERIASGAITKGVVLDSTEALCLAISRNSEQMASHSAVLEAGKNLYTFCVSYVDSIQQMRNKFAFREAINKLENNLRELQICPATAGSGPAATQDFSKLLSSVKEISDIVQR
Chain of Sigma intracellular receptor 2 (Q5BJF2 whole entry): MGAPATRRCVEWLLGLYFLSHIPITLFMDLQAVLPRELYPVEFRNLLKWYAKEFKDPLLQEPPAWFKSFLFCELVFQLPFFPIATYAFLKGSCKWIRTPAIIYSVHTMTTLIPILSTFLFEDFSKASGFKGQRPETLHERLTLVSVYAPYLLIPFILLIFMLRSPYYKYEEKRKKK
Chain of Cyclin-dependent kinase 15 (Homo sapiens) (Q96Q40 whole entry, the tested form may be a part): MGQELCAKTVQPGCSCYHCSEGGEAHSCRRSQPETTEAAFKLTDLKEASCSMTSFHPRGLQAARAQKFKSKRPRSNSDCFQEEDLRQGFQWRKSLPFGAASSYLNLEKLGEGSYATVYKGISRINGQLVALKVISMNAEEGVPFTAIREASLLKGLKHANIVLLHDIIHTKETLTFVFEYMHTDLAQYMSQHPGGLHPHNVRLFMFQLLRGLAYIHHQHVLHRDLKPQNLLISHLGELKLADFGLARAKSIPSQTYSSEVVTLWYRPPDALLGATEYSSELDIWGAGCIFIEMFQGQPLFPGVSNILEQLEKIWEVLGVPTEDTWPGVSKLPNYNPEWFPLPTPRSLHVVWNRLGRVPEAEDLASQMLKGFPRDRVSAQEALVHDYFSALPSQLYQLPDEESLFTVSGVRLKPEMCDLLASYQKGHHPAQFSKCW
Chain of Mast/stem cell growth factor receptor Kit (Homo sapiens), P10721 [V559D,V654A] (P10721 whole entry V559D/V654A): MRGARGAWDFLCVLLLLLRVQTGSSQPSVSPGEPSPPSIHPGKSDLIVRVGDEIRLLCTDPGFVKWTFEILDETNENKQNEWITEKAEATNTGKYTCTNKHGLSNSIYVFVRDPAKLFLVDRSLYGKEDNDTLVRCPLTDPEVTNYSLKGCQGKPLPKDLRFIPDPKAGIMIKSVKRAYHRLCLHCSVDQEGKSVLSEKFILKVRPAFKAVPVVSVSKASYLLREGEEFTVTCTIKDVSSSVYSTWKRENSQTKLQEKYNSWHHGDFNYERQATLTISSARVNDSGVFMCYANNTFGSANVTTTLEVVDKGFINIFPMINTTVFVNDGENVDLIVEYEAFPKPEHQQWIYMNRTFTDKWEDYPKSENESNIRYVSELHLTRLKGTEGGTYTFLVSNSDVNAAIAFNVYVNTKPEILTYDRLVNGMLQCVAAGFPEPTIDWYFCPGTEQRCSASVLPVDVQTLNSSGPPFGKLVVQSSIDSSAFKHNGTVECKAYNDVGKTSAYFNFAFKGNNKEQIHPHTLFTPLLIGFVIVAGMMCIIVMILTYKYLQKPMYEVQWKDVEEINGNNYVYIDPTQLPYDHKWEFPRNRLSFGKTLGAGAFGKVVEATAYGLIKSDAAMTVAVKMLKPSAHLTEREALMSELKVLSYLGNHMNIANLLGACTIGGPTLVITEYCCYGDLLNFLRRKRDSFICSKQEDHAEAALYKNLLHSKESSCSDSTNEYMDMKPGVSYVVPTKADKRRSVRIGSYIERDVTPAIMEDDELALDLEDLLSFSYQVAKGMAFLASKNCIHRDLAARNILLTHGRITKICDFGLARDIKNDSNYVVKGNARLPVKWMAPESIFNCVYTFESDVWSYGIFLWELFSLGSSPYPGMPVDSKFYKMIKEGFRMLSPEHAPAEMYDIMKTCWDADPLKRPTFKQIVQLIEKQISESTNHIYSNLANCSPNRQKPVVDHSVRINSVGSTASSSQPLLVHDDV
Chain of Serine/threonine-protein kinase ULK2 (Homo sapiens) (Q8IYT8 whole entry): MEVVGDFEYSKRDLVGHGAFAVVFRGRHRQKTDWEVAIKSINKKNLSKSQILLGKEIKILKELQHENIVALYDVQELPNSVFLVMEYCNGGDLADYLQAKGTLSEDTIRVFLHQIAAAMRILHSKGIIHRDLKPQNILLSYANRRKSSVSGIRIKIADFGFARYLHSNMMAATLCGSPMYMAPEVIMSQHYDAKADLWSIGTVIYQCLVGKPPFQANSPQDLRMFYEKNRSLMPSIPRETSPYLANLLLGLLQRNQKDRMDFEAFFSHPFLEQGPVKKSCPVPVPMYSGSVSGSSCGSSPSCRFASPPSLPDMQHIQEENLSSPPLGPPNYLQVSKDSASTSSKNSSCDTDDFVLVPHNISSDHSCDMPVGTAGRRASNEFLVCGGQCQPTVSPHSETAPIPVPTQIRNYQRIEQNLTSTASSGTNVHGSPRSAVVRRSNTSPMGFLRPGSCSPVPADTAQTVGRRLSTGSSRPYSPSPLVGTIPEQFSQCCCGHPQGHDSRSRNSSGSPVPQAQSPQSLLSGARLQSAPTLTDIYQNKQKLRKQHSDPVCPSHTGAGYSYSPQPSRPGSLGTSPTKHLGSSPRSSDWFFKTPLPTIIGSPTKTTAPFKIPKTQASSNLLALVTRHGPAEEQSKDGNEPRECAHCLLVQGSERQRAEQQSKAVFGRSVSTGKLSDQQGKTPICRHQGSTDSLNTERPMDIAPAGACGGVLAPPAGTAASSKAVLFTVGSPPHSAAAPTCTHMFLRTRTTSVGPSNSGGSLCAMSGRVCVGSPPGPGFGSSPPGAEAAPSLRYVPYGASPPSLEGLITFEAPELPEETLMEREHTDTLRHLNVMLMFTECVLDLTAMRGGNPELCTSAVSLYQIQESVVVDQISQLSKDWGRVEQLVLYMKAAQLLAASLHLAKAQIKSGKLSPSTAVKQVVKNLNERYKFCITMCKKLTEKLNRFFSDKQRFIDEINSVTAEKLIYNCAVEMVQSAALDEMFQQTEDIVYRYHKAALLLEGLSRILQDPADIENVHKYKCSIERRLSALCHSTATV
Chain of Interleukin-1 receptor-associated kinase 4 (Homo sapiens) (Q9NWZ3 whole entry): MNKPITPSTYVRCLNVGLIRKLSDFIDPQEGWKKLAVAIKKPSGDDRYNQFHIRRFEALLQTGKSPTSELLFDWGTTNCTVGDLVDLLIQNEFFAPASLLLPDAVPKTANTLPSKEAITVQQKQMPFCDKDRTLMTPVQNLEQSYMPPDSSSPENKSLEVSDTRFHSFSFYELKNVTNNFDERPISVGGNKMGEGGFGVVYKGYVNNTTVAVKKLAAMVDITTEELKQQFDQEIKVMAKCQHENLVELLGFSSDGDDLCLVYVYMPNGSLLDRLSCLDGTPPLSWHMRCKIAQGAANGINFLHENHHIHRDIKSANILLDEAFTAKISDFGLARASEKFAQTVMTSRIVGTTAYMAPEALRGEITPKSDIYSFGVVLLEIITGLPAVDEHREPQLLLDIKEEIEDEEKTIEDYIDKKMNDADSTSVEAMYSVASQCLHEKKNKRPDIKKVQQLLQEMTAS
Chain of Tyrosine-protein kinase ABL1 (Homo sapiens) (P00519 whole entry): as the sequence (P00519 whole entry F317L) above, with L317F counted along it

Compound `NS(=O)(=O)c1cc(NC(=O)C2(c3ccccc3Cl)CC2)ccc1Oc1cccc(Cl)c1` [BAY-207] has a pKi [1] of 5.71, a residual activity [2] of 88% and a residual activity [3] of 71%. For the same compound, the residual activity [4] was 64%, the residual activity [5] was 80% and the residual activity [6] was 95%. It also gave a residual activity [7] of 63%, a residual activity [8] of 89% and a residual activity [9] of 83%. The residual activity [10] was 97%, the residual activity [11] was 100% and the residual activity [12] was 56%. The residual activity [13] was 85%, the residual activity [14] was 78% and the residual activity [15] was 92%. For the same compound, the residual activity [16] was 61%, the residual activity [17] was 100% and the residual activity [18] was 100%. It also gave a residual activity [19] of 89%, a residual activity [20] of 100% and a residual activity [21] of 100%. The residual activity [22] was 81%, the residual activity [23] was 98% and the residual activity [24] was 100%. It also gave a residual activity [25] of 84%, a residual activity [26] of 86% and a residual activity [27] of 100%. For the same compound, the residual activity [28] was 100%, the residual activity [29] was 89% and the residual activity [30] was 100%. The residual activity [31] was 96%, the residual activity [32] was 80% and the residual activity [33] was 100%. For the same compound, the residual activity [34] was 100%, the residual activity [35] was 100% and the residual activity [36] was 70%. The residual activity [37] was 100%, the residual activity [38] was 100% and the residual activity [39] was 88%. The residual activity [40] was 81%, the residual activity [41] was 90% and the residual activity [42] was 100%. It also gave an inhibition [43] of 17.3%, an inhibition [44] of 14.7% and an inhibition [45] of 87.5%.

In the case of `NS(=O)(=O)c1cc(NC(=O)Cc2ccccc2)ccc1Oc1cccc(Cl)c1` [BAY-1797], the pKi [1] was 5.36, the Ki ([1]; read-out: pKi (converted)) was 4.17 µM and the residual activity [2] was 57%. The residual activity [3] was 72%, the residual activity [4] was 78% and the residual activity [5] was 87%. For the same compound, the residual activity [6] was 100%, the residual activity [7] was 100% and the residual activity [8] was 86%. It also gave a residual activity [9] of 71%, a residual activity [10] of 91% and a residual activity [11] of 96%. The residual activity [12] was 92%, the residual activity [13] was 76% and the residual activity [14] was 93%. The residual activity [15] was 83%, the residual activity [16] was 91% and the residual activity [17] was 69%. The residual activity [18] was 100%, the residual activity [19] was 72% and the residual activity [20] was 72%. For the same compound, the residual activity [21] was 63%, the residual activity [22] was 80% and the residual activity [23] was 88%. For the same compound, the residual activity [24] was 91%, the residual activity [25] was 73% and the residual activity [26] was 87%. For the same compound, the residual activity [27] was 86%, the residual activity [28] was 83% and the residual activity [29] was 90%. It also gave a residual activity [30] of 84%, a residual activity [31] of 59% and a residual activity [32] of 91%. It also gave a residual activity [33] of 100%, a residual activity [34] of 95% and a residual activity [35] of 86%. The residual activity [36] was 66%, the residual activity [37] was 91% and the residual activity [38] was 52%. The residual activity [39] was 0%, the residual activity [40] was 0% and the residual activity [41] was 100%. For the same compound, the residual activity [42] was 87%, the inhibition [43] was 35.2% and the inhibition [44] was 16.7%. It also gave an inhibition [45] of 5.06%.
